Laboratory results reported in PubChem BioAssay AID328 (DTP/NCI, 2004).
Values joined by “and” are separate entries in the source; they are usually repeats but may differ in a detail not shown here. Equal entries are not always repeated. Toxic doses and inconclusive results are not listed. Non-standard residues stand in square brackets, D forms with d. Residues, ends and D or L forms follow the SMILES beside them. ξ: configuration not given here. *: point of attachment. ξF = NC(Cc1ccccc1)C(=O)O; ClAc = O=C(CCl)*

Test system: BDF1 mice, P388 leukemia ip, median survival T/C
Test: NCI In Vivo Anticancer Drug Screen. Data for tumor model P388 Leukemia (intraperitoneal) in B6D2F1 (BDF1) mice
Details: endpoint: median survival time, higher = longer survival
Procedure, shortened: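 Read-out is survival of treated animals expressed relative to the vehicle group, as a T/C ratio.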

[1] = dose: 25.0 mg/kg/injection, schedule: Q01DX009 (ip), vehicle: saline
[2] = dose: 50.0 mg/kg/injection, schedule: Q01DX009 (ip), vehicle: saline
[3] = dose: 100.0 mg/kg/injection, schedule: Q01DX009 (ip), vehicle: saline
[4] = dose: 200.0 mg/kg/injection, schedule: Q01DX009 (ip), vehicle: saline
[5] = dose: 25.0 mg/kg/injection, schedule: Q04DX003 (ip), vehicle: saline with Tween-80
[6] = dose: 50.0 mg/kg/injection, schedule: Q04DX003 (ip), vehicle: saline with Tween-80
[7] = dose: 100.0 mg/kg/injection, schedule: Q04DX003 (ip), vehicle: saline with Tween-80
[8] = dose: 100.0 mg/kg/injection, schedule: Q04DX003 (ip), vehicle: saline
[9] = dose: 200.0 mg/kg/injection, schedule: Q04DX003 (ip), vehicle: saline
[10] = dose: 400.0 mg/kg/injection, schedule: Q01DX009 (ip), vehicle: saline
[11] = dose: 400.0 mg/kg/injection, schedule: Q04DX003 (ip), vehicle: saline
[12] = dose: 100.0 mg/kg/injection, schedule: Q01DX009 (ip), vehicle: saline with Tween-80
[13] = dose: 200.0 mg/kg/injection, schedule: Q01DX009 (ip), vehicle: saline with Tween-80
[14] = dose: 50.0 mg/kg/injection, schedule: Q01DX009 (ip), vehicle: saline with Tween-80
[15] = dose: 100.0 mg/kg/injection, schedule: Q01DX009 (ip), vehicle: Klucel (hydroxypropylcellulose) (HPC)
[16] = dose: 200.0 mg/kg/injection, schedule: Q01DX009 (ip), vehicle: Klucel (hydroxypropylcellulose) (HPC)
[17] = dose: 200.0 mg/kg/injection, schedule: Q04DX003 (ip), vehicle: saline with Tween-80

Compound: Cc1ccn(C)c(=O)c1
- T/C [1]: 86 % of control
- T/C [2]: 86 % of control
- T/C [3]: 86 % of control and 100 % of control
- T/C [4]: 105 % of control

Compound: Cc1cc(N(CCO)CCO)c2cc3ccc4cccc5ccc(c2n1)c3c45
- T/C [5]: 98 % of control
- T/C [6]: 110 % of control
- T/C [7]: 93 % of control and 100 % of control

Compound: CCCCNC(C)(C)CCl
- T/C (dose: 1.56 mg/kg/injection, schedule: Q01DX009 (ip), vehicle: water): 95 % of control
- T/C (dose: 3.12 mg/kg/injection, schedule: Q01DX009 (ip), vehicle: water): 102 % of control
- T/C (dose: 3.12 mg/kg/injection, schedule: Q04DX003 (ip), vehicle: water): 106 % of control
- T/C (dose: 6.25 mg/kg/injection, schedule: Q04DX003 (ip), vehicle: water): 88 % of control
- T/C (dose: 12.5 mg/kg/injection, schedule: Q01DX009 (ip), vehicle: water): 95 % of control
- T/C (dose: 12.5 mg/kg/injection, schedule: Q04DX003 (ip), vehicle: water): 106 % of control
- T/C (dose: 25.0 mg/kg/injection, schedule: Q01DX009 (ip), vehicle: water): 111 % of control
- T/C (dose: 25.0 mg/kg/injection, schedule: Q04DX003 (ip), vehicle: water): 100 % of control and 106 % of control
- T/C (dose: 50.0 mg/kg/injection, schedule: Q01DX009 (ip), vehicle: water): 104 % of control

Compound: COc1cc2cc(-c3cc(OC)c(OC)c(OC)c3)c3c(c2cc1OC)CNC3=O
- T/C [3]: 110 % of control
- T/C [8]: 101 % of control
- T/C [4]: 112 % of control
- T/C [9]: 108 % of control
- T/C [10]: 91 % of control
- T/C [11]: 100 % of control

Compound: COC(=O)C(Sc1ccc(Cl)cc1)C1SC(=S)N(C)C1=O (stereo not drawn)
- T/C [12]: 118 % of control
- T/C [13]: 92 % of control

Compound: CC1([CH2][Hg][I])CS(=O)(=O)CC(C)([CH2][Hg][I])O1 (stereo not drawn)
- T/C (dose: 5.0 mg/kg/injection, schedule: Q01DX010 (ip), vehicle: carboxymethylcellulose (CMC)): 104 % of control
- T/C (dose: 10.0 mg/kg/injection, schedule: Q01DX010 (ip), vehicle: carboxymethylcellulose (CMC)): 109 % of control

Compound: CCOC1(c2ccccc2)c2cc(Cl)ccc2NC(=O)N1CC (stereo not drawn)
- T/C [14]: 101 % of control
- T/C [12]: 98 % of control
- T/C [13]: 94 % of control

Compound: O=C(c1ccc(Cl)cc1)c1cccc[n+]1Cc1ccccc1
- T/C (dose: 0.37 mg/kg/injection, schedule: Q01DX009 (ip), vehicle: Klucel (hydroxypropylcellulose) (HPC)): 100 % of control
- T/C (dose: 18.75 mg/kg/injection, schedule: Q01DX009 (ip), vehicle: Klucel (hydroxypropylcellulose) (HPC)): 104 % of control
- T/C (dose: 28.12 mg/kg/injection, schedule: Q04DX003 (ip), vehicle: Klucel (hydroxypropylcellulose) (HPC)): 100 % of control
- T/C (dose: 37.5 mg/kg/injection, schedule: Q01DX009 (ip), vehicle: Klucel (hydroxypropylcellulose) (HPC)): 109 % of control
- T/C (dose: 56.25 mg/kg/injection, schedule: Q04DX003 (ip), vehicle: Klucel (hydroxypropylcellulose) (HPC)): 95 % of control
- T/C (dose: 112.5 mg/kg/injection, schedule: Q04DX003 (ip), vehicle: Klucel (hydroxypropylcellulose) (HPC)): 100 % of control

Compound: CCc1ccccc1NC(=O)N1CCOCC1
- T/C [14]: 94 % of control
- T/C [12]: 102 % of control
- T/C [13]: 109 % of control

Compound: S=C(Nc1ccc(Cl)c(Cl)c1)N1c2ccccc2-n2cccc2C1c1cccnc1 (stereo not drawn)
- T/C (dose: 50.0 mg/kg/injection, schedule: Q01DX009 (ip), vehicle: Klucel (hydroxypropylcellulose) (HPC)): 124 % of control
- T/C [15]: 121 % of control
- T/C [16]: 117 % of control

Compound: N#C/C(=C\c1ccncc1)c1csc2ccccc12
- T/C (dose: 50.0 mg/kg/injection, schedule: Q01DX011 (ip), vehicle: Klucel (hydroxypropylcellulose) (HPC)): 111 % of control
- T/C (dose: 100.0 mg/kg/injection, schedule: Q01DX011 (ip), vehicle: Klucel (hydroxypropylcellulose) (HPC)): 107 % of control
- T/C (dose: 200.0 mg/kg/injection, schedule: Q01DX011 (ip), vehicle: Klucel (hydroxypropylcellulose) (HPC)): 107 % of control
- T/C (dose: 400.0 mg/kg/injection, schedule: Q01DX011 (ip), vehicle: Klucel (hydroxypropylcellulose) (HPC)): 89 % of control

Compound: O=C(O)/C=N/NS(=O)(=O)/C=C/c1ccccc1
- T/C (dose: 50.0 mg/kg/injection, schedule: Q01DX009 (ip), vehicle: other): 155 % of control
- T/C (dose: 100.0 mg/kg/injection, schedule: Q01DX009 (ip), vehicle: other): 186 % of control

Compound: O=C(CCl)NCC(=O)NC(Cc1ccccc1)C(=O)O (stereo not drawn) (ClAc-Gly-[ξF]-OH)
- T/C [6]: 109 % of control
- T/C [7]: 109 % of control
- T/C [17]: 90 % of control

Compound: O=C(CBr)OCCCS(=O)(=O)O
- T/C (dose: 50.0 mg/kg/injection, schedule: Q04DX003 (ip), vehicle: saline): 95 % of control
- T/C [8]: 104 % of control
- T/C [9]: 100 % of control

Compound: O=NN(CCCl)C(=O)NC1CC2CCC1C2 (stereo not drawn)
- T/C (dose: 33.0 mg/kg/injection, schedule: Q04DX003 (ip), vehicle: saline with Tween-80): 272 % of control
- T/C (dose: 75.0 mg/kg/injection, schedule: Q04DX003 (ip), vehicle: saline with Tween-80): 113 % of control

Compound: CCCCSC1=CC(=O)c2ccccc2C1=O
- T/C (dose: 3.12 mg/kg/injection, schedule: Q01DX009 (ip), vehicle: Klucel (hydroxypropylcellulose) (HPC)): 92 % of control and 104 % of control
- T/C (dose: 6.25 mg/kg/injection, schedule: Q01DX009 (ip), vehicle: Klucel (hydroxypropylcellulose) (HPC)): 100 % of control and 116 % of control
- T/C (dose: 12.5 mg/kg/injection, schedule: Q01DX009 (ip), vehicle: Klucel (hydroxypropylcellulose) (HPC)): 100 % of control and 107 % of control and 108 % of control

Compound: Cc1cc(N)no1
- T/C [3]: 92 % of control
- T/C [8]: 104 % of control
- T/C [4]: 96 % of control
- T/C [9]: 95 % of control
- T/C [10]: 92 % of control
- T/C [11]: 100 % of control

Compound: NCCc1c[nH]c2ccc(F)cc12
- T/C (dose: 12.5 mg/kg/injection, schedule: Q01DX009 (ip), vehicle: saline): 91 % of control
- T/C [1]: 98 % of control
- T/C [2]: 98 % of control
- T/C [3]: 91 % of control

Compound: Cc1noc(N)c1N
- T/C (dose: 100.0 mg/kg/injection, schedule: Q01DX009 (ip), vehicle: water): 110 % of control
- T/C (dose: 100.0 mg/kg/injection, schedule: Q04DX003 (ip), vehicle: water): 109 % of control
- T/C (dose: 200.0 mg/kg/injection, schedule: Q01DX009 (ip), vehicle: water): 110 % of control and 117 % of control
- T/C (dose: 200.0 mg/kg/injection, schedule: Q04DX003 (ip), vehicle: water): 100 % of control
- T/C (dose: 400.0 mg/kg/injection, schedule: Q01DX009 (ip), vehicle: water): 106 % of control
- T/C (dose: 400.0 mg/kg/injection, schedule: Q04DX003 (ip), vehicle: water): 100 % of control
- T/C (dose: 600.0 mg/kg/injection, schedule: Q01DX009 (ip), vehicle: water): 122 % of control

Compound: S
- T/C [15]: 100 % of control
- T/C (dose: 100.0 mg/kg/injection, schedule: Q04DX003 (ip), vehicle: Klucel (hydroxypropylcellulose) (HPC)): 86 % of control
- T/C [16]: 110 % of control
- T/C (dose: 200.0 mg/kg/injection, schedule: Q04DX003 (ip), vehicle: Klucel (hydroxypropylcellulose) (HPC)): 100 % of control
- T/C (dose: 400.0 mg/kg/injection, schedule: Q04DX003 (ip), vehicle: Klucel (hydroxypropylcellulose) (HPC)): 100 % of control

Compound: NC(=O)CN1C(=O)c2ccccc2C1=O
- T/C [12]: 100 % of control
- T/C [7]: 95 % of control
- T/C [13]: 90 % of control
- T/C [17]: 100 % of control
- T/C (dose: 400.0 mg/kg/injection, schedule: Q01DX009 (ip), vehicle: saline with Tween-80): 100 % of control
- T/C (dose: 400.0 mg/kg/injection, schedule: Q04DX003 (ip), vehicle: saline with Tween-80): 100 % of control

Compound: S=c1cc(-c2ccc(Cl)cc2)ss1
- T/C [1]: 123 % of control
- T/C [2]: 101 % of control
- T/C [3]: 107 % of control
- T/C [8]: 107 % of control
- T/C [4]: 107 % of control
- T/C [9]: 110 % of control
- T/C [10]: 123 % of control
- T/C [11]: 100 % of control

Compound: CC1(C)CC(=O)C(C)(C)C(=O)C1
- T/C (dose: 3.0 mg/kg/injection, schedule: Q04DX003 (ip), vehicle: saline with Tween-80): 95 % of control
- T/C (dose: 6.0 mg/kg/injection, schedule: Q04DX003 (ip), vehicle: saline with Tween-80): 108 % of control
- T/C (dose: 6.25 mg/kg/injection, schedule: Q01DX009 (ip), vehicle: saline with Tween-80): 100 % of control
- T/C (dose: 12.0 mg/kg/injection, schedule: Q04DX003 (ip), vehicle: saline with Tween-80): 100 % of control
- T/C (dose: 12.5 mg/kg/injection, schedule: Q01DX009 (ip), vehicle: saline with Tween-80): 104 % of control
- T/C [5]: 95 % of control

Compound: CN(C)P(N)(=S)N(C)C
- T/C [14]: 96 % of control
- T/C [12]: 91 % of control
- T/C [13]: 96 % of control
